Results taken from ChEMBL document CHEMBL1145863, “Design and synthesis of dihydrofolate reductase inhibitors encompassing a bridging ester group. Evaluation in a mouse colitis model” (J Med Chem, 2003).

Biological target: T1, Dihydrofolate reductase (Rattus norvegicus, UniProt Q920D2)
T1 sequence (Q920D2 whole entry): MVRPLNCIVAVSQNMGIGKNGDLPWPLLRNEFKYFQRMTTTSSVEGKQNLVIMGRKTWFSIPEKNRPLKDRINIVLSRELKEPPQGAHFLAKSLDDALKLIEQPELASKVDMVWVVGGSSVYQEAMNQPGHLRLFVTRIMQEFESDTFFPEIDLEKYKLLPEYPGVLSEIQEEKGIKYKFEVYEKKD
Assay: Inhibition of rat liver Dihydrofolate reductase (rlDHFR)

IC50 | Compound
150 nM | Nc1nc(N)c2cc(COC(=O)c3ccc(C(=O)N[C@H](CCC(=O)O)C(=O)O)cc3)ccc2n1
160 nM | Nc1nc(N)c2cc(COC(=O)c3ccc(C(=O)N[C@@H](CCCC(=O)O)C(=O)O)cc3)ccc2n1
